Results taken from ChEMBL document CHEMBL5584237, “Design, synthesis, biological evaluation, and in silico studies of novel pyridopyridine derivatives as anticancer candidates targeting FMS kinase” (Eur J Med Chem, 2024).
The source made the active and inactive calls. The calls are words filed in the database; no cut-off is given here.

Key:
CCRF-CEM = assay: Antiproliferative activity against human CCRF-CEM cells assessed as cell growth inhibition; type: functional
K562 = assay: Antiproliferative activity against human K562 cells assessed as cell growth inhibition; type: functional
MOLT-4 = assay: Antiproliferative activity against human MOLT-4 cells assessed as cell growth inhibition; type: functional
A549 = assay: Antiproliferative activity against human A549 cells assessed as cell growth inhibition; type: functional
COLO 205 = assay: Antiproliferative activity against human COLO 205 cells assessed as cell growth inhibition; type: functional
HCT-15 = assay: Antiproliferative activity against human HCT-15 cells assessed as cell growth inhibition; type: functional
HT-29 = assay: Antiproliferative activity against human HT-29 cells assessed as cell growth inhibition; type: functional
Malme-3M = assay: Antiproliferative activity against human Malme-3M cells assessed as cell growth inhibition; type: functional
MDA-MB-435 = assay: Antiproliferative activity against human MDA-MB-435 cells assessed as cell growth inhibition; type: functional
OVCAR-3 = assay: Antiproliferative activity against human OVCAR-3 cells assessed as cell growth inhibition; type: functional
PC-3 = assay: Antiproliferative activity against human PC-3 cells assessed as cell growth inhibition; type: functional
MDA-MB-231 = assay: Antiproliferative activity against human MDA-MB-231 cells assessed as cell growth inhibition; type: functional
Hs-578T = assay: Antiproliferative activity against human Hs-578T cells assessed as cell growth inhibition; type: functional
[1] = Cytotoxicity against human WI-38 cells assessed as reduction in cell growth measured after 48 hrs by MTT assay; type: toxicity, cell-based
[2] = Selectivity index, ratio of IC50 for human WI-38 cells to IC50 for human CCRF-CEM cells; type: toxicity; settings: WI-38 cells and CCRF-CEM cells, read-out: Ratio IC50
[3] = Selectivity index, ratio of IC50 for human WI-38 cells to IC50 for human SR cells; type: toxicity; settings: WI-38 cells and SR cells, read-out: Ratio IC50
[4] = Selectivity index, ratio of IC50 for human WI-38 cells to IC50 for human COLO 205 cells
[5] = Selectivity index, ratio of IC50 for human WI-38 cells to IC50 for human HCT-116 cells; type: toxicity; settings: WI-38 cells and HCT-116 cells, read-out: Ratio IC50
[6] = Selectivity index, ratio of IC50 for human WI-38 cells to IC50 for human SF-539 cells
[7] = Selectivity index, ratio of IC50 for human WI-38 cells to IC50 for human SNB-75 cells
[8] = Selectivity index, ratio of IC50 for human WI-38 cells to IC50 for human M14 cells
[9] = Selectivity index, ratio of IC50 for human WI-38 cells to IC50 for human MDA-MB-435 cells
[10] = Selectivity index, ratio of IC50 for human WI-38 cells to IC50 for human RXF 393 cells
[11] = Selectivity index, ratio of IC50 for human WI-38 cells to IC50 for human SN12C cells
[12] = Selectivity index, ratio of IC50 for human WI-38 cells to IC50 for human PC-3 cells; type: toxicity; settings: WI-38 cells and PC-3 cells, read-out: Ratio IC50
[13] = Selectivity index, ratio of IC50 for human WI-38 cells to IC50 for human MCF7 cells; type: toxicity; settings: WI-38 cells and MCF7 cells, read-out: Ratio IC50
[14] = Selectivity index, ratio of IC50 for human WI-38 cells to IC50 for human Hs-578T cells
[15] = Selectivity index, ratio of IC50 for human WI-38 cells to IC50 for human MDA-MB-468 cells; type: toxicity; settings: WI-38 cells and MDA-MB-468 cells, read-out: Ratio IC50
[16] = Selectivity index, ratio of IC50 for human HS27 cells to IC50 for human NCI-H460 cells
[17] = Selectivity index, ratio of IC50 for human HS27 cells to IC50 for human HCT-15 cells
[18] = Selectivity index, ratio of IC50 for human HS27 cells to IC50 for human HT-29 cells
[19] = Selectivity index, ratio of IC50 for human HS27 cells to IC50 for human SW-620 cells
[20] = Selectivity index, ratio of IC50 for human HS27 cells to IC50 for human SF-295 cells
[21] = Selectivity index, ratio of IC50 for human HS27 cells to IC50 for human SF-539 cells
[22] = Selectivity index, ratio of IC50 for human HS27 cells to IC50 for human LOX IMVI cells
[23] = Selectivity index, ratio of IC50 for human HS27 cells to IC50 for human Malme-3M cells
[24] = Selectivity index, ratio of IC50 for human HS27 cells to IC50 for human MDA-MB-435 cells
[25] = Selectivity index, ratio of IC50 for human HS27 cells to IC50 for human 786-0 cells
[26] = Selectivity index, ratio of IC50 for human HS27 cells to IC50 for human RXF 393 cells
[27] = Selectivity index, ratio of IC50 for human HS27 cells to IC50 for human SN12C cells
[28] = Selectivity index, ratio of IC50 for human HS27 cells to IC50 for human PC-3 cells
[29] = Selectivity index, ratio of IC50 for human HS27 cells to IC50 for human MDA-MB-231 cells
[30] = Selectivity index, ratio of IC50 for human HS27 cells to IC50 for human Hs-578T cells
[31] = Selectivity index, ratio of IC50 for human HS27 cells to IC50 for human MDA-MB-468 cells
Hep 3B2 [32] = assay: Cell cycle arrest in human Hep3B cells assessed as downregulation of cyclin D1 expression at 0.5 x IC50 to IC50 measured after 48 hrs by Western blot analysis; type: functional, cell-based
[33] = target: Macrophage colony-stimulating factor 1 receptor (Homo sapiens, UniProt P07333); assay: Inhibition of FMS (unknown origin) using myelin basic protein as substrate measured after 40 mins in presence of [gamma-33P]-ATP by scintillation counting method; settings: read-out: IC50
HepG2 = assay: cells; settings: Homo sapiens, HepG2, 48 h
Description: Antiproliferative activity against human HepG2 cells assessed as cell growth inhibition measured after 48 hrs by MTT assay

Hep 3B2 [34] = assay: cells; settings: Homo sapiens, Hep3B, 48 h

Chain of Macrophage colony-stimulating factor 1 receptor (P07333 whole entry): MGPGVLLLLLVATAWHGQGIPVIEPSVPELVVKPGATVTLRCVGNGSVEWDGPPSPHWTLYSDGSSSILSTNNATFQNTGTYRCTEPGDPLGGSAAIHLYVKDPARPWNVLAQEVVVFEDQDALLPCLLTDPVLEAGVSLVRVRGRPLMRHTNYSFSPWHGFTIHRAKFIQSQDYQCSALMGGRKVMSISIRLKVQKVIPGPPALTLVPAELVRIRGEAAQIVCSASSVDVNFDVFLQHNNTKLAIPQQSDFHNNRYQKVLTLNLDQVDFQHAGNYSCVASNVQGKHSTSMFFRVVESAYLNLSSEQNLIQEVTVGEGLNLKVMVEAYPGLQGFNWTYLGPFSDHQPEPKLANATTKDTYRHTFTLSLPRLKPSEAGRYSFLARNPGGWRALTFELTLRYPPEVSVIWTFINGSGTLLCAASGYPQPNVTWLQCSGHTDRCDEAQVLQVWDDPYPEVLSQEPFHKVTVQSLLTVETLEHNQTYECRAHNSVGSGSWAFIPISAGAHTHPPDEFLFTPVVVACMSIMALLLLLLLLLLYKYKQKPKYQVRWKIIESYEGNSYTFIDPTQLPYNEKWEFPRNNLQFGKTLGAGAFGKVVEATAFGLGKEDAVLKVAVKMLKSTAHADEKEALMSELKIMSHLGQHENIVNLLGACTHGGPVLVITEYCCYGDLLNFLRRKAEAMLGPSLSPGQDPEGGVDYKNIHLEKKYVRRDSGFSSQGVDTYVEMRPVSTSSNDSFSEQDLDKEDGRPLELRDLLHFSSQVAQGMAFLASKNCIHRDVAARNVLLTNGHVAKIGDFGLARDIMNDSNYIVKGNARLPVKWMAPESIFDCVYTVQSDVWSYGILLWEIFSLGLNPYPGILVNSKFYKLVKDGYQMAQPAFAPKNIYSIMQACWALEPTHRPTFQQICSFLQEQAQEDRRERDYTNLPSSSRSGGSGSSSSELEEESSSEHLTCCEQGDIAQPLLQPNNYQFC

GI50 (K562): 1000 nM | GI50 (COLO 205): 930 nM | GI50 (HCT-15): 670 nM | GI50 (HT-29): 670 nM | GI50 (MDA-MB-435): 650 nM | GI50 (OVCAR-3): 640 nM | GI50 (PC-3): 760 nM | GI50 (MDA-MB-231): 610 nM | IC50 [33]: 993 nM | IC50 (HepG2): 460 nM | IC50 (Hep 3B2 [34]): 1690 nM
Compound: CCN1CCN(c2ccc(NC(=O)Nc3ccc(-c4cc(C(=O)NC(C)C)c5ncccc5n4)cc3)cc2C(F)(F)F)CC1
TGI (CCRF-CEM): 3100 nM | TGI (K562): 34500 nM | TGI (MOLT-4): 30600 nM | TGI (A549): 5770 nM | TGI (COLO 205): 2710 nM | TGI (HCT-15): 1350 nM | TGI (HT-29): 1320 nM | GI50 (Malme-3M): 580 nM | TGI (Malme-3M): 1050 nM | TGI (MDA-MB-435): 1310 nM | TGI (OVCAR-3): 1360 nM | TGI (PC-3): 2100 nM | TGI (MDA-MB-231): 1180 nM | GI50 (Hs-578T): 880 nM | TGI (Hs-578T): 3450 nM | IC50 at 48 h [1]: 16200 nM | selectivity ratio [2]: 15.4 | selectivity ratio [3]: 15.4 | Ratio IC50 [4]: 18.84 | selectivity ratio [5]: 18.8 | Ratio IC50 [6]: 8.71 | Ratio IC50 [7]: 8.71 | Ratio IC50 [8]: 8.62 | Ratio IC50 [9]: 8.62 | Ratio IC50 [10]: 10.52 | Ratio IC50 [11]: 10.52 | selectivity ratio [12]: 21.6 | selectivity ratio [13]: 10.1 | Ratio IC50 [14]: 10.06 | selectivity ratio [15]: 10.1 | Ratio IC50 [16]: 3.32 | Ratio IC50 [17]: 9.77 | Ratio IC50 [18]: 9.77 | Ratio IC50 [19]: 9.77 | Ratio IC50 [20]: 4.52 | Ratio IC50 [21]: 4.52 | Ratio IC50 [22]: 4.47 | Ratio IC50 [23]: 4.47 | Ratio IC50 [24]: 4.47 | Ratio IC50 [25]: 5.45 | Ratio IC50 [26]: 5.45 | Ratio IC50 [27]: 5.45 | Ratio IC50 [28]: 11.2 | Ratio IC50 [29]: 5.22 | Ratio IC50 [30]: 5.22 | Ratio IC50 [31]: 5.22 | Activity (Hep 3B2 [32]): inactive
